# Results published in PubChem BioAssay (NCI).
# Several values for one entry are separate records, joined by “and”; a condition that tells them apart may be missing. Equal values may be shown once.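 Each compound was tested at five concentrations against cells in 96-well plates for 48 hours. GI50 = concentration required for 50% inhibition of growth. At the TGI there is no net growth.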
# Columns and labels:
# Assay in all cases: inhibition of tumour cell growth, NCI panel, 48 h
# RPMI-8226 leukemia = test system: RPMI-8226 leukemia
# UACC-62 melanoma = test system: UACC-62 melanoma
# NCI-H522 lung = test system: NCI-H522 lung
# CCRF-CEM leukemia = test system: CCRF-CEM leukemia
# SNB-19 CNS = test system: SNB-19 CNS
# IGROV1 ovarian = test system: IGROV1 ovarian
# COLO 205 colon = test system: COLO 205 colon
# MALME-3M melanoma = test system: MALME-3M melanoma
# HOP-62 NSCLC = test system: HOP-62 NSCLC
# LOX IMVI melanoma = test system: LOX IMVI melanoma
SMILES,GI50 (RPMI-8226 leukemia) [µM],TGI (RPMI-8226 leukemia) [µM],GI50 (UACC-62 melanoma) [µM],TGI (UACC-62 melanoma),GI50 (NCI-H522 lung) [µM],TGI (NCI-H522 lung) [µM],GI50 (CCRF-CEM leukemia) [µM],TGI (CCRF-CEM leukemia) [µM],GI50 (SNB-19 CNS) [µM],TGI (SNB-19 CNS),GI50 (IGROV1 ovarian) [µM],TGI (IGROV1 ovarian),GI50 (COLO 205 colon) [µM],GI50 (MALME-3M melanoma) [µM],TGI (MALME-3M melanoma),GI50 (HOP-62 NSCLC) [µM],TGI (HOP-62 NSCLC),TGI (COLO 205 colon),TGI (LOX IMVI melanoma),GI50 (LOX IMVI melanoma) [µM]
C[As](C)SCC(COC(=O)C(Cl)c1ccccc1)OC(=O)C(Cl)c1ccccc1 (stereo not given),0.299,1.37,3.19,52.9 µM,0.361,> 38.8,0.339,2.14,14.5,50 µM,1.93,> 42.6 µM,1.43,0.139,1.44 µM,6.66,21.6 µM,,,
Oc1ccc2ccccc2c1N=Nc1ccsc1,,> 100,,> 100 µM,,> 100,,> 100,,> 100 µM,,> 100 µM,,,> 100 µM,,> 100 µM,> 100 µM,> 100 µM,
CC(=O)C1=C(O)C=C2Oc3c(C(=O)/C=C/c4c(Cl)cccc4Cl)c(O)c(C)c(O)c3[C@]2(C)C1=O,0.5,1.77,0.677,2.8 µM,0.46,2.77,0.573,5.43,1.08,5.93 µM,1.56,9.37 µM,2.34,2.1,4.96 µM,1.58,5.08 µM,5.25 µM,3.64 µM,1.13
COc1cc(-c2cc(O)c(-c3ccc4ccccc4n3)c(=O)[nH]2)cc(OC)c1OC,,> 95.3,,> 67.9 µM,,40.8,,> 30.6,,> 100 µM,,> 78.8 µM,,,> 54.8 µM,,> 90.4 µM,> 93.2 µM,> 53.8 µM,
O=C(c1ccccc1)C(CN1CCCCC1)c1ccccc1 (stereo not given),0.539,2.88,1.98,4.8 µM,0.316,2.53,0.301,2.34,9.6,21.5 µM,1.5,3.34 µM,1.57,1.44,3.35 µM,2.03,5.9 µM,3.14 µM,1.7 µM,0.478
C[C@]12CC/C(=N\O)C=C1CC[C@@H]1C2CC[C@@]2(C)C1CC[C@@H]2OC1CCCCO1 (stereo not given in full),,37.7,,> 10 µM,,34.7,,,,33.1 µM,,> 100 µM,,,41.4 µM,,> 100 µM,32.6 µM,37.4 µM,
CO/N=C(\C)c1ccc(Nc2cc(-c3ccccc3)nc3ccc(OC)cc23)cc1,2.79,9.64,1.97,4.41 µM,4.4,> 100,,,5.97,> 100 µM,4.56,> 100 µM,7.02,1.78,4.85 µM,,,> 100 µM,,
COc1c2ccoc2c(OC)c2oc(=O)ccc12,,> 100,,> 100 µM,,> 100,,> 100,,> 100 µM,,> 100 µM,,,,,> 100 µM,> 100 µM,> 100 µM,
C/C(=N\NS(=O)(=O)c1ccc(C)cc1)P(=O)(O)O,,> 100,,> 100 µM,,> 100,,,,> 100 µM,,> 100 µM,,,> 100 µM,,> 100 µM,> 100 µM,> 100 µM,
Cc1ccc(S(=O)(=O)NC2(C=O)CCCC3CCCCC32)cc1 (stereo not given),,> 100,,> 100 µM,,> 100,,> 100,,> 100 µM,,> 100 µM,,,> 100 µM,,> 100 µM,> 100 µM,,
CC(=O)C1C(c2ccc(N(C)C)cc2)c2cc3c(cc2OC1(C)O)OCO3 (stereo not given),,83.2,,> 100 µM,,,,> 100,,> 100 µM,,> 100 µM,,,> 100 µM,,> 100 µM,> 100 µM,> 100 µM,
CCN(CC)CC(O)CNc1c2ccc([N+](=O)[O-])cc2nc2cc(OC)c(OC)cc12 (stereo not given),0.359,2.14,0.453,1.8 µM,0.267,0.823,0.517,10.4,0.24,1.31 µM,0.305,1.51 µM,,0.249,0.573 µM,,,,0.662 µM,0.238
O=C(Nc1ccc(Cl)c(Cl)c1)Nc1c(Oc2ccc(Cl)c(Cl)c2)ccc(Cl)c1S(=O)(=O)O,2.91,> 100,1.97,> 100 µM,,,4.03,> 100,3.42,> 100 µM,,,2.39,,,,,> 100 µM,> 100 µM,1.96
COC(=O)c1cc(O)c2cc3c(cc2c1-c1cc(OC)c(OC)c(OC)c1)OCO3,,,1.17,> 100 µM,0.272,1.13,,,3.57,> 100 µM,0.91,> 100 µM,2.77,0.815,> 100 µM,1.79,18.4 µM,> 100 µM,> 100 µM,1.67
CN1C(=O)C2C3C=C4c5ccccc5N(c5ccccc5)C4(C2C1=O)[C@H]1C(=O)N(C)C(=O)[C@@H]31 (stereo not given in full),,> 100,,> 100 µM,,> 100,,> 100,,> 100 µM,,,,,> 100 µM,,> 100 µM,> 100 µM,> 100 µM,
CCOC(=O)N1CCC(=O)C(CNC23CC4CC(CC(C4)C2)C3)C1 (stereo not given),,,,> 100 µM,,34,,35.9,,> 100 µM,,,,,37.7 µM,,> 100 µM,> 100 µM,41.5 µM,
O=C(O)CCC(N=Cc1nc(-c2ccccc2)oc1O)C(=O)O (stereo not given),,> 100,,> 100 µM,,> 100,,> 100,,> 100 µM,,> 100 µM,,,> 100 µM,,> 100 µM,> 100 µM,,
COc1ccc2ccccc2c1C1NC(=O)c2ccccc2N1 (stereo not given),,8.06,,,,> 25.6,,> 28.3,,> 100 µM,,> 100 µM,,,> 100 µM,,> 100 µM,,65.2 µM,
O=c1[nH]c(=S)[nH]c2c1CN(CCCN1CCOCC1)CN2,,75.6,,37.3 µM,,52.3,,,,> 100 µM,,> 100 µM,,,42.3 µM,,> 100 µM,38.6 µM,62.4 µM,

SMILES,GI50 (RPMI-8226 leukemia) [µM],TGI (RPMI-8226 leukemia) [µM],GI50 (UACC-62 melanoma) [µM],TGI (UACC-62 melanoma),GI50 (NCI-H522 lung) [µM],TGI (NCI-H522 lung) [µM],GI50 (CCRF-CEM leukemia) [µM],TGI (CCRF-CEM leukemia) [µM],GI50 (SNB-19 CNS) [µM],TGI (SNB-19 CNS),GI50 (IGROV1 ovarian) [µM],TGI (IGROV1 ovarian),GI50 (COLO 205 colon) [µM],GI50 (MALME-3M melanoma) [µM],TGI (MALME-3M melanoma),GI50 (HOP-62 NSCLC) [µM],TGI (HOP-62 NSCLC),TGI (COLO 205 colon),TGI (LOX IMVI melanoma),GI50 (LOX IMVI melanoma) [µM]
CC(=O)OC(C)(C)/C(C)=C/C(=O)O[C@H]1C(=O)O[C@@H]2C[C@H]3[C@H](C)C(=O)C(O[C@@H]4O[C@H](CO)[C@@H](O)[C@H](O)[C@H]4O)=C[C@]3(C)[C@H]3[C@@H](O)[C@H](O)[C@@]4(C(=O)O)OC[C@]32[C@@H]14,,,> 100,> 100 µM,18.7,49.5,43.8,> 100,> 100,> 100 µM,> 100,> 100 µM,> 100,55.9,> 100 µM,69.1,> 100 µM,> 100 µM,> 100 µM,
COc1cc(C(=O)N2CCN(c3ncnc4ccccc34)CC2)c(N)cc1OCc1ccccc1,14,47.8,12,24.3 µM,5.71,26.8,23.8,58.1,13.7,29.8 µM,17.8,41.6 µM,5.14,13.7,30.4 µM,,,20.2 µM,24.6 µM,12.2
COC(=O)C(C(=O)OC)C1CCCC(=O)C1 (stereo not given),,> 100,,> 100 µM,,,,> 100,,> 100 µM,,> 100 µM,,,> 100 µM,,> 100 µM,> 100 µM,> 100 µM,
Nc1nnnn1CCO,,> 100,,> 100 µM,,> 100,,,,> 100 µM,,> 100 µM,,,> 100 µM,,> 100 µM,> 100 µM,> 100 µM,
O=C(CCN1CCN(c2ccccc2)CC1)N1CCc2c([nH]c3ccccc23)C1c1cccnc1 (stereo not given),,,,,,30,,69.7,,66.7 µM,,> 100 µM,,,39.2 µM,,40.4 µM,26.7 µM,30.6 µM,
NC(=O)/N=C1/CCC2C3CCCC2C13,,> 100,,> 100 µM,,> 100,,> 100,,> 100 µM,,> 100 µM,,,,,> 100 µM,> 100 µM,> 100 µM,
CCN(CC)c1ccc(C(O)C2=CC(=O)c3ccccc3C2=O)cc1 (stereo not given),,,1.65,3.34 µM,1.79,4.19,0.31,,,,1.53,3.07 µM,1.58,1.59,3.13 µM,2.03,4.33 µM,3.59 µM,3.66 µM,1.14
COC(=O)c1cccn1C(=O)n1cccc1,,,,> 100 µM,,> 100,,> 100,,> 100 µM,,> 100 µM,,,> 100 µM,,> 100 µM,> 100 µM,> 100 µM,
CC1CCCC(C(O)CC2CC(=O)NC(=O)C2)C1O (stereo not given),,> 100,,> 100 µM,,,,> 100,,> 100 µM,,> 100 µM,,,> 100 µM,,> 100 µM,> 100 µM,> 100 µM,
NCCOCCOCCNc1nc(-c2ccccc2)nc(N2CCN(c3ccccn3)CC2)n1,13.5,34.2,6.76,19.4 µM,,,14.3,33.2,,,18.2,34.4 µM,6.35,11.3,26.2 µM,16.7,31 µM,21.1 µM,21.3 µM,8.3
COc1cc(C2SCC(=O)N2c2ncc(C)s2)cc(OC)c1OC (stereo not given),17.2,> 50,12.5,49.4 µM,> 50,> 50,,,34.5,> 50 µM,> 50,> 50 µM,17.5,,,,,> 50 µM,> 50 µM,31.2
CN(C)CCNC(=O)c1cccc(N(C)C(=O)c2ccccc2)c1[N+](=O)[O-],,,,> 100 µM,,> 100,,> 100,,> 100 µM,,> 100 µM,,,> 100 µM,,> 100 µM,> 10 µM,,
Nc1nc2c(ncn2C2C=CC(CO)C2)c(=O)[nH]1 (stereo not given),,> 100,,> 100 µM,,> 100,,,,> 100 µM,,> 100 µM,,,> 100 µM,,> 100 µM,> 100 µM,,
C/C(CC(=O)Nc1ccc(C)c(C)c1)=N\NC(N)=O,,> 100,,> 100 µM,,> 100,,> 100,,,,> 100 µM,,,> 100 µM,,> 100 µM,> 100 µM,> 100 µM,
CC(C)([NH-])CO.CC(C)([NH-])CO.[Cl][Cd][Cl],14.5,43.8,7.82,25 µM,1.56,3.37,15.9,38.8,> 100,> 100 µM,19,36.7 µM,26.1,8.6,22.4 µM,> 100,> 100 µM,55.8 µM,,
O=[P+](O)c1ccsc1,,> 100,,> 100 µM,,> 100,,> 100,,,,> 100 µM,,,,,> 100 µM,> 100 µM,> 100 µM,
Oc1ccc(C(c2ccc(O)cc2)c2ccc(O)cc2)cc1,,56.8,,29.8 µM,,32.9,,92.6,,66.1 µM,,35.2 µM,,,44 µM,,,20.8 µM,38.4 µM,
CCC/C(=N\NC(=S)N1CC2CCC(CC2)C1)c1ccccn1,,,0.0329,1.14 µM and 0.642 µM,,0.738,,,0.338,2.04 µM and 1.92 µM,0.372,1.4 µM and 2.21 µM,0.0138,,2.76 µM and 1.99 µM,1.16,4.92 µM and 2.7 µM,0.0997 µM and 0.281 µM,4.31 µM and 2.13 µM,0.0199
